From publication PMC12274840 (The Journal of Biological Chemistry, 2025) come the findings set out here.

The MIC is the least concentration at which growth counts as inhibited. Read a low MIC as inhibition by little substance.

Common to all, as to type: cell-based, Escherichia coli
Holding throughout (conditions): antibiotic alone

The subject of test [1] is E. coli KA797 cells carrying pUK21 with BlaC I105G.
For test [2], the system named is E. coli KA797 cells carrying pUK21 with TEM-1 Y105G.
For test [3], the system named is E. coli KA797 cells carrying pUK21 with CTX-M-14 Y105R.
In test [4] the test system is E. coli KA797 cells carrying pUK21 with CTX-M-14 Y105G.
Test [5] concerns E. coli KA797 cells carrying pUK21 with BlaC I105R.

In brackets after ≈: the same amount, converted by molar mass.

For `CC1(C)S[C@@H]2[C@H](NC(=O)C(C(=O)O)c3ccccc3)C(=O)N2[C@H]1C(=O)O` (some centres unmarked) [carbenicillin], the MIC in test [1] was 800 µg/mL (≈ 2.11 mM); in test [2], 16,000 μg/ml; in test [3], 2000 µg/mL (≈ 5.29 mM); in test [4] it was 1000 µg/mL (≈ 2.64 mM); in test [5], 1600 µg/mL (≈ 4.23 mM).
